Measurements published in US20220348592A1, “FUSED HETEROCYCLIC DERIVATIVES” (Janssen Sciences Ireland Unlimited Company, priority 2019, published 2022).

Tests used:
[1] = tested on: HBV; assay: Anti-HBV activity: intracellular HBV DNA by real-time PCR in HepG2.117 cell line; assay type: cell-based, Hepatitis B virus; conditions: Hepatitis B virus, 72 h; HepG2.117 cells, 3 days of treatment, intracellular HBV DNA by real-time PCR, mean value; read-out: HBV-AVE-HepG2.117 EC50 (μM, mean value)
Protocol: The anti HBV activity was measured using the HepG2.117 cell line, a stable, inducibly HBV producing cell line, which replicates HBV in the absence of doxicycline (Tet-off system). The HepG2 cell line is available from ATCC® under number HB-8065. Transfection of the HepG2 cell line can be as described in Sun and Nassal 2006 Journal of Hepatology 45 (2006) 636-645 “Stable HepG2- and Huh7-based human hepatoma cell lines for efficient regulated expression of infectious hepatitis B virus”.
For the antiviral assay, HBV replication was induced, followed by a treatment with serially diluted compound in 96-well plates. After 3 days of treatment, the antiviral activity was determined by quantification of intracellular HBV DNA using real-time PCR and an HBV specific primer set and probe.

[2] = Cytotoxicity in HepG2.117 cells, ATPlite Luminescence Assay; assay type: cell-based, human; conditions: human, incubated for 3 days, mean value, read-out: TOX-HepG2.117 CC50 (μM, mean value)
Protocol: Cytotoxicity of the compounds was tested using HepG2 or HepG2.117 cells, incubated for 3 days in the presence of compounds. The viability of the cells was assessed using the PERKIN ELMER ATPlite Luminescence Assay System.”

COc1ccc(CN2CCn3nc4c(c3C2=O)CN(C(=O)c2ccc(F)c(C)c2)CC4)cc1 [Example C49]
EC50 [1]: 0.274 µM
CC50 at 3 days [2]: 20.6 µM

COc1ccc(CN2CCn3nc4c(c3C2=O)CN(C(=O)c2ccc(F)c(C#N)c2)CC4)cc1 [Example C52]
EC50 [1]: 0.995 µM
CC50 at 3 days [2]: > 50 µM

COc1ccc(CN2CCn3nc4c(c3C2=O)CN(C(=O)c2ccc(C)c(F)c2)CC4)cc1 [Example C53]
EC50 [1]: 1.08 µM
CC50 at 3 days [2]: 20.4 µM

COc1ccc(CN2CCn3nc4c(c3C2=O)CN(C(=O)c2cccc(Cl)c2)CC4)cc1 [Example C54]
EC50 [1]: 1.99 µM
CC50 at 3 days [2]: 13.6 µM

COc1ccc(CN2CCn3nc4c(c3C2=O)CN(C(=O)c2cc(F)c(F)c(F)c2)CC4)cc1 [Example C56]
EC50 [1]: 0.962 µM
CC50 at 3 days [2]: 28.4 µM

COc1ccc(CN2CCn3nc4c(c3C2=O)CN(C(=O)c2ccc(Cl)c(C(F)F)c2)CC4)cc1 [Example C57]
EC50 [1]: 0.04 µM
CC50 at 3 days [2]: 18.9 µM

COc1ccc(CCN2CCn3nc4c(c3C2=O)CN(C(=O)c2ccc(Cl)c(Cl)c2)[C@H](C)C4)cc1 [Example C58]
EC50 [1]: 0.531 µM
CC50 at 3 days [2]: 18 µM

C[C@@H]1Cc2nn3c(c2CN1C(=O)c1ccc(Cl)c(Cl)c1)C(=O)N(Cc1ncccn1)CC3 [Example C60]
EC50 [1]: 0.565 µM
CC50 at 3 days [2]: > 50 µM

COc1ccc(CN2CCn3nc4c(c3C2=O)CN(C(=O)c2ccc(C(F)F)c(Cl)c2)CC4)cc1 [Example C62]
EC50 [1]: 0.13 µM
CC50 at 3 days [2]: 9.31 µM

COc1ccc(CN2CCn3nc4c(c3C2=O)CN(C(=O)c2ccc(Cl)c(C#N)c2)CC4)cc1 [Example C64]
EC50 [1]: 0.089 µM
CC50 at 3 days [2]: > 49 µM

C[C@@H]1Cc2nn3c(c2CN1C(=O)c1ccc(Cl)c(Cl)c1)C(=O)N(Cc1cnccn1)CC3 [Example C65]
EC50 [1]: 0.299 µM
CC50 at 3 days [2]: > 50 µM

C[C@@H]1Cc2nn3c(c2CN1C(=O)c1ccc(Cl)c(Cl)c1)C(=O)N(Cc1cccc(OC(F)F)c1)CC3 [Example C66]
EC50 [1]: 0.042 µM
CC50 at 3 days [2]: 9.18 µM

C[C@@H]1Cc2nn3c(c2CN1C(=O)c1ccc(Cl)c(Cl)c1)C(=O)N(Cc1ccccc1OC(F)F)CC3 [Example C67]
EC50 [1]: 0.07 µM
CC50 at 3 days [2]: 22.5 µM

COc1ccc(CN2CCn3nc4c(c3C2=O)CN(C(=O)c2ccc(C(F)F)c(F)c2)CC4)cc1 [Example C68]
EC50 [1]: 0.321 µM
CC50 at 3 days [2]: 10.6 µM

C[C@@H]1Cc2nn3c(c2CN1C(=O)c1ccc(Cl)c(Cl)c1)C(=O)N(Cc1ccc(OC(F)F)cn1)CC3 [Example C69]
EC50 [1]: 0.063 µM
CC50 at 3 days [2]: 14.5 µM

COc1ccc(CN2CCn3nc4c(c3C2=O)CN(C(=O)c2ccc(C(F)F)c(C#N)c2)CC4)cc1 [Example C70]
EC50 [1]: 0.232 µM
CC50 at 3 days [2]: > 50 µM

O=C(c1ccc(Cl)cc1F)N1CCc2nn3c(c2C1)C(=O)N(Cc1ccccn1)CC3 [Example C72]
EC50 [1]: > 2.5 µM
CC50 at 3 days [2]: > 50 µM

O=C(c1cnc(Cl)c(Cl)c1)N1CCc2nn3c(c2C1)C(=O)N(Cc1ccccn1)CC3 [Example C73]
EC50 [1]: > 2.5 µM
CC50 at 3 days [2]: > 50 µM

Cc1cc(Cl)ccc1C(=O)N1CCc2nn3c(c2C1)C(=O)N(Cc1ccccn1)CC3 [Example C74]
EC50 [1]: > 2.5 µM
CC50 at 3 days [2]: > 50 µM

COc1cc(Cl)ccc1C(=O)N1CCc2nn3c(c2C1)C(=O)N(Cc1ccccn1)CC3 [Example C76]
EC50 [1]: 0.983 µM
CC50 at 3 days [2]: > 25 µM

O=C(c1ccc(Cl)c(F)c1)N1CCc2nn3c(c2C1)C(=O)N(Cc1ccccn1)CC3 [Example C78]
EC50 [1]: 0.707 µM
CC50 at 3 days [2]: > 50 µM

C[C@@H]1Cc2nn3c(c2CN1C(=O)c1ccc(Cl)c(Cl)c1)C(=O)N(Cc1ccccc1F)CC3 [Example C80]
EC50 [1]: 0.05 µM
CC50 at 3 days [2]: 26.1 µM

C[C@@H]1Cc2nn3c(c2CN1C(=O)c1ccc(Cl)c(Cl)c1)C(=O)N(Cc1ccc(C#N)cc1)CC3 [Example C82]
EC50 [1]: 0.019 µM
CC50 at 3 days [2]: 32.5 µM

O=C(c1ccc(Cl)c(Cl)c1)N1CCc2nn3c(c2C1)C(=O)N(Cc1ccccn1)CCC3 [Example C83, 2-(3,4-dichlorobenzoyl)-10-(pyridin-2-ylmethyl)-1,2,3,4,7,8,9,10-octahydro-11H-pyrido[4′,3′:3,4]pyrazolo[1,5-a][1,4]diazepin-11-one]
EC50 [1]: 0.229 µM
CC50 at 3 days [2]: > 50 µM

COc1ccc(C(C)N2CCn3nc4c(c3C2=O)CN(C(=O)c2ccc(Cl)c(Cl)c2)[C@H](C)C4)cc1F (some centres unmarked) [Example C86]
EC50 [1]: 0.046 µM
CC50 at 3 days [2]: > 50 µM
